# Experiments:
# [1] = (§1) Mean pharmacokinetic parameters for Pamidronate after intravenous infusion of 30, 60 and 90 mg of Pamidronate disodium for 4 hours and 90 mg for 24 hours in cancer patients, 6 in each group.; format: ADME, organism-based; set-up: dose 90 mg, dose 30 mg, dose 60 mg, route iv; conditions: human, in vivo, dosed compound id 8, dosed compound name PAMIDRONATE DISODIUM, gender male and female, regimen Single dose, route iv, study dosing duration 4 hours
# Homo sapiens = assay: as §1; format: ADME, organism-based; set-up: dose 90 mg, dose 30 mg, dose 60 mg, route iv; conditions: in vivo, iv, dosed compound id 8, dosed compound name PAMIDRONATE DISODIUM, gender male and female, regimen Single dose; for Excretion: tissue Urine
# [2] = dose 60 mg, study dosing duration 4 hours, tissue Plasma
# [3] = dose 90 mg, study dosing duration 4 hours, tissue Plasma
# [4] = dose 90 mg, study dosing duration 24 hours, tissue Plasma
structure (smiles),measurement,setting,value
NCCC(O)(P(=O)([O-])O)P(=O)([O-])O.[Na+].[Na+],dose excreted,"[1]; iv, at 30 mg, tissue Urine, read-out: Excretion",43.9%
same,clearance,"[1]; dose 30 mg, tissue Plasma",136 mL/min
same,CL renal,"[1]; dose 30 mg, tissue Plasma, read-out: CL_renal",58 mL/min
same,Excretion,"Homo sapiens; at 60 mg, study dosing duration 4 hours",47.4%
same,Excretion,"Homo sapiens; at 90 mg, study dosing duration 4 hours",45.3%
same,Excretion,"Homo sapiens; at 90 mg, study dosing duration 24 hours",47.5%
same,CL,Homo sapiens; [2],88 mL/min
same,CL_renal,Homo sapiens; [2],42 mL/min
same,CL,Homo sapiens; [3],103 mL/min
same,CL_renal,Homo sapiens; [3],44 mL/min
same,CL,Homo sapiens; [4],101 mL/min
same,CL_renal,Homo sapiens; [4],52 mL/min
same,Cmax,"Homo sapiens; study dosing duration 24 hours, tissue Plasma",1380 ng/mL

# From ChEMBL document CHEMBL3832050, “DailyMed|setid=da574350-be6b-49f3-b2ef-64da06af9b9d | PAMDRONATE DISODIUM - pamodronate disodium injection, solution|GENERAMEDIX, INC”
